Reference: patent publication US7419969B2 (Bristol-Myers Squibb Company, priority 2004, dated 2008)

Target: T1, HIV-integrase (Human immunodeficiency virus type 1 group M subtype B, UniProt P04585)
T1 construct: Recombinant integrase (0.26 ng) was incubated with the beads
Test: in-vitro activity against HIV-integrase (HIV Integrase Inhibition, SPA bead assay)
Assay type: biochemical
Details: Table 1; recombinant integrase, activity class
How it was run: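 Recombinant integrase (0.26 ng) pre-bound for 90 min at 37 °C to biotinylated substrate DNA on streptavidin SPA beads, then washed. Inhibitors added with 33P-labelled target DNA; reaction stopped with 10 mM EDTA. Scintillation CPM taken as integration signal.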

O=C(NCc1cccc(F)c1)c1nc2n(c(=O)c1O)CCCC21CCC1 [Example 67] and O=C(NCc1ccc(Cl)cc1)c1nc2n(c(=O)c1O)CCCC21CCC1 [Example 65, N-[(4-chlorophenyl)methyl]-7′,8′-dihydro-3′-hydroxy-4′-oxo-spiro[cyclobutane-1,9′(6′H)-[4H]pyrido[1,2-α]pyrimidine]-2′-carboxamide] fall in the same range of IC50: 0.001 to 0.01 µM for the first, 0.001 to 0.01 µM for the second.

O=C(NCc1ccc(F)cc1)c1nc2n(c(=O)c1O)CCOC21CCCC1 [Example 15, N-[(4-fluorophenyl)methyl]-6′,7′-dihydro-3′-hydroxy-4′-oxo-spiro[cyclopentane-1,9′(4′H)-pyrimido[2,1-c][1,4]oxazine]-2′-carboxamide] and O=C(NCc1ccc(F)cc1)c1nc2n(c(=O)c1O)CCCOC21CCC1 [Example 59, N-[(4-fluorophenyl)methyl]-7′,8′-dihydro-3′-hydroxy-4′-oxo-spiro[cyclobutane-1,1 0′(4′H)-[6H]pyrimido[2,1-c][1,4]oxazepine]-2′-carboxamide] fall in the same range of IC50: 0.001 to 0.01 µM for the first, 0.001 to 0.01 µM for the second.

CN(C)S(=O)(=O)c1cc(F)ccc1CNC(=O)c1nc2n(c(=O)c1O)CCOC21CCC1 [Example 54, N-[[2-[(dimethylamino)sulfonyl]-4-fluorophenyl]methyl]-6′,7′-dihydro-3′-hydroxy-4′-oxo-spiro[cyclobutane-1,9′(4′H)-pyrimido[2,1-c][1,4]oxazine]-2′-carboxamide] and CS(=O)(=O)c1cc(F)ccc1CNC(=O)c1nc2n(c(=O)c1O)CCOC21CCOCC1 [Example 44, N-[[4-fluoro-2-(methylsulfonyl)phenyl]methyl]-2,3,5,6,6′,7′-hexahydro-3′-hydroxy-4′-oxo-spiro[4H-pyran-4,9′(4′H)-pyrimido[2,1-c][1,4]oxazine]-2′-carboxamide] fall in the same range of IC50: 0.001 to 0.01 µM for the first, 0.001 to 0.01 µM for the second.

Cc1cc(CNC(=O)c2nc3n(c(=O)c2O)CCOC32CCCC2)ccc1F [Example 16, N-[(4-fluoro-3-methylphenyl)methyl]-6′,7′-dihydro-3′-hydroxy-4′-oxo-spiro[cyclopentane-1,9′(4′H)-pyrimido[2,1-c][1,4]oxazine]-2′-carboxamide] and Cc1cc(CNC(=O)c2nc3n(c(=O)c2O)CCCC32CCCC2)ccc1F [Example 2, N-[(4-fluoro-3-methylphenyl)methyl]-7′,8′-dihydro-3′-hydroxy-4′-oxo-spiro[cyclopentane-1,9′(6′H)-[4H]pyrido[1,2-a]pyrimidine]-2′-carboxamide] fall in the same range of IC50: 0.001 to 0.01 µM for the first, 0.001 to 0.01 µM for the second.

O=C(NCc1ccc(F)cc1-n1cncn1)c1nc2n(c(=O)c1O)CCOC21CCOC1 (stereo not drawn) [Example 38] and O=C(NCc1ccc(F)cc1-n1cncn1)c1nc2n(c(=O)c1O)CCCOC21CCC1 [Example 60, N-[[4-fluoro-2-(1 H-1,2,4-triazol-1-yl)phenyl]methyl]-7′,8′-dihydro-3′-hydroxy-4′-oxo-spiro[cyclobutane-1,10′(4′H)-[6H]pyrimido[2,1-c][1,4]oxazepine]-2′-carboxamide] fall in the same range of IC50: 0.001 to 0.01 µM for the first, 0.001 to 0.01 µM for the second.

First: O=C(NCc1ccc(F)cc1N1CCCCS1(=O)=O)c1nc2n(c(=O)c1O)CCOC21CCCC1 [Example 34, N-[[4-fluoro-2-(tetrahydro-1,1-dioxido-2H-1,2-thiazin-2-yl)phenyl]methyl]-6′,7′-dihydro-3′-hydroxy-4′-oxo-spiro[cyclopentane-1,9′(4′H)-pyrimido[2,1-c][1,4]oxazine]-2′-carboxamide]
Second: O=C(NCc1ccccc1F)c1nc2n(c(=O)c1O)CCOC21CCCC1 [Example 24, N-[(2-fluorophenyl)methyl]-6′,7′-dihydro-3′-hydroxy-4′-oxo-spiro[cyclopentane-1,9′(4′H)-pyrimido[2,1-c][1,4]oxazine]-2′-carboxamide]
The IC50 of the first is lower: 0.001 to 0.01 µM for the first, 0.01 to 0.1 µM for the second. The first is the more potent here.

CC(NC(=O)c1nc2n(c(=O)c1O)CCCC21CCC1)c1ccc(F)cc1 (stereo not drawn) [Example 74, N-[1-(4-fluorophenyl)ethyl]-7′,8′-dihydro-3′-hydroxy-4′-oxo-spiro[cyclobutane-1,9′(6′H)-[4H]pyrido[1,2-α]pyrimidine]-2′-carboxamide] and O=C(NCc1ccc(F)cc1)c1nc2n(c(=O)c1O)CCOC21CCNCC1 [Example 88, N-[(4-fluorophenyl)methyl]-6′,7′-dihydro-3′-hydroxy-4′-oxo-spiro[piperidine-4,9′(4′H)-pyrimido[2,1-c][1,4]oxazine]-2′-carboxamide] fall in the same range of IC50: 0.01 to 0.1 µM for the first, 0.01 to 0.1 µM for the second.

O=C(NCc1ccccc1)c1nc2n(c(=O)c1O)CCOC21CCCC1 [Example 14, N-(phenylmethyl)-6′,7′-dihydro-3′-hydroxy-4′-oxo-spiro[cyclopentane-1,9′(4′H)-pyrimido[2,1-c][1,4]oxazine]-2′-carboxamide] and O=C(NCc1ccc(F)cc1)c1nc2n(c(=O)c1O)CCOC21CCOC1 (stereo not drawn) [Example 36, N-[(4-fluorophenyl)methyl]-4,5,6′,7′-tetrahydro-3′-hydroxy-4′-oxo-spiro[furan-3(2H),9′(4′H)-pyrimido[2,1-c][1,4]oxazine]-2′-carboxamide] fall in the same range of IC50: 0.001 to 0.01 µM for the first, 0.001 to 0.01 µM for the second.

First: CSc1cc(F)ccc1CNC(=O)c1nc2n(c(=O)c1O)CCOC21CCOC1 (stereo not drawn) [Example 39, N-[[4-fluoro-2-(methylthio)phenyl]methyl]-4,5,6′,7′-tetrahydro-3′-hydroxy-4′-oxo-spiro[furan-3(2H),9′(4′H)-pyrimido[2,1-c][1,4]oxazine]-2′-carboxamide]
Second: CS(=O)(=O)c1cc(F)ccc1CNC(=O)c1nc2n(c(=O)c1O)CCOC21CCOC1 (stereo not drawn) [Example 90, N-[[4-fluoro-2-(methylsulfonyl)phenyl]methyl]-4,5,6′,7′-tetrahydro-3′-hydroxy-4′-oxo-spiro[furan-3(2H),9′(4′H)-pyrimido[2,1-c][1,4]oxazine]-2′-carboxamide]
The IC50 of the first is lower: 0.001 to 0.01 µM for the first, 0.01 to 0.1 µM for the second. The first is the more potent here.

Cc1ncnn1-c1cc(F)ccc1CNC(=O)c1nc2n(c(=O)c1O)CCOC21CCOCC1 [Example 49, N-[[4-fluoro-2-(5-methyl-1H-1,2,4-triazol-1-yl)phenyl]methyl]-2,3,5,6,6′, 7-hexahydro-3′-hydroxy-4′-oxo-spiro[4H-pyran-4,9′(4′H)-pyrimido[2,1-c][1,4]oxazine]-2′-carboxamide] and Cc1ccc(CNC(=O)c2nc3n(c(=O)c2O)CCOC32CCOCC2)cc1C [Example 48, N-[(3,4-dimethylphenyl)methyl]-2,3,5,6,6′,7′-hexahydro-3′-hydroxy-4′-oxo-spiro[4H-pyran-4,9′(4′H)-pyrimido[2,1-c][1,4]oxazine]-2′-carboxamide] fall in the same range of IC50: 0.001 to 0.01 µM for the first, 0.001 to 0.01 µM for the second.

O=C(NCc1cccc(F)c1-n1cncn1)c1nc2n(c(=O)c1O)CCCC21CCCC1 [Example 12, N-[[3-fluoro-2-(1H-1,2,4-triazol-1-yl)phenyl]methyl]-7′,8′-dihydro-3′-hydroxy-4′-oxo-spiro[cyclopentane-1,9′(6′H)-[4H]pyrido[1,2-α]pyrimidine]-2′-carboxamide] showed an IC50 of 0.001 to 0.01 µM.

Same assay, conditions: Table 1a; recombinant integrase, activity class

Cc1nnn(-c2cc(F)ccc2CNC(=O)c2nc3n(c(=O)c2O)CCOC32CCC2)c1C [Example 102, Spiro[cyclobutane-1,9′(4′H)-pyrimido[2,1-c][1,4]oxazine]-2′-carboxamide, N-[[2-(4,5-dimethyl-1H-1,2,3-triazol-1-yl)-4-fluorophenyl]methyl]-6′,7′-dihydro-3′-hydroxy-4′-oxo-] and Cc1nnn(-c2cc(F)ccc2CNC(=O)c2nc3n(c(=O)c2O)CCCOC32CCC2)c1C [Example 107, Spiro[cyclobutane-1,10′(4′H)-[6H]pyrimido[2,1-c][1,4]oxazepine]-2′-carboxamide, N-[[2-(4,5-dimethyl-1H-1,2,3-triazol-1-yl)-4-fluorophenyl]methyl]-7′,8′-dihydro-3′-hydroxy-4′-oxo-] fall in the same range of IC50: 0.01 to 0.1 µM for the first, 0.01 to 0.1 µM for the second.

O=C(NCc1ccc(F)cc1N1CCC1=O)c1nc2n(c(=O)c1O)CCOC21CCC1 [Example 106, Spiro[cyclobutane-1,9′(4′H)-pyrimido[2,1-c][1,4]oxazine]-2′-carboxamide, N-[[4-fluoro-2-(2-oxo-1-azetidinyl)phenyl]methyl]-6′,7′-dihydro-3′-hydroxy-4′-oxo-] and Cc1ncn(-c2cc(F)ccc2CNC(=O)c2nc3n(c(=O)c2O)CCCOC32CCC2)n1 [Example 123, Spiro[cyclobutane-1,10′(4′H)-[6H]pyrimido[2,1-c][1,4]oxazepine]-2′-carboxamide, N-[[4-fluoro-2-(3-methyl-1H-1,2,4-triazol-1-yl)phenyl]methyl]-7′,8′-dihydro-3′-hydroxy-4′-oxo-] fall in the same range of IC50: 0.001 to 0.01 µM for the first, 0.001 to 0.01 µM for the second.

First: Cc1ncn(-c2cc(F)ccc2CNC(=O)c2nc3n(c(=O)c2O)CCOC32COC2)n1 [Example 108, Spiro[oxetane-3,9′(4′H)-pyrimido[2,1-c][1,4]oxazine]-2′-carboxamide, N-[[4-fluoro-2-(3-methyl-1H-1,2,4-triazol-1-yl)phenyl]methyl]-6′,7′-dihydro-3′-hydroxy-4′-oxo-]
Second: CS(=O)(=O)c1cc(F)ccc1CNC(=O)c1nc2n(c(=O)c1O)CCOC21COC1 [Example 111, Spiro[oxetane-3,9′(4′H)-pyrimido[2,1-c][1,4]oxazine]-2′-carboxamide, N-[[4-fluoro-2-(methylsulfonyl)phenyl]methyl]-6′,7′-dihydro-3′-hydroxy-4′-oxo-]
The IC50 of the first is lower: 0.001 to 0.01 µM for the first, 0.01 to 0.1 µM for the second. The first is the more potent here.

First: O=C(NCc1ccc(F)cc1-n1ccnn1)c1nc2n(c(=O)c1O)CCOC21CCOCC1 [Example 112, Spiro[4H-pyran-4,9′(4′H)-pyrimido[2,1-c][1,4]oxazine]-2′-carboxamide, N-[[4-fluoro-2-(1H-1,2,3-triazol-1-yl)phenyl]methyl]-2,3,5,6,6′,7′-hexahydro-3′-hydroxy-4′-oxo-]
Second: Cc1nc(C)n(-c2cc(F)ccc2CNC(=O)c2nc3n(c(=O)c2O)CCCOC32CCC2)n1 [Example 128, Spiro[cyclobutane-1,10′(4′H)-[6H]pyrimido[2,1-c][1,4]oxazepine]-2′-carboxamide, N-[[2-(3,5-dimethyl-1H-1,2,4-triazol-1-yl)-4-fluorophenyl]methyl]-7′,8′-dihydro-3′-hydroxy-4′-oxo-]
The IC50 of the first is lower: 0.001 to 0.01 µM for the first, 0.01 to 0.1 µM for the second. The first is the more potent here.

With O=C(NCc1ccc(F)cc1-n1cncn1)c1nc2n(c(=O)c1O)CCNC21CCC1 [Example 131] the IC50 was 0.001 to 0.01 µM.
